IC50 data for 37 molecules are collected here from patent US12240828B2, “Heteroaromatic compounds as vanin inhibitors” (Boehringer Ingelheim International GmbH, priority 2018, dated 2025).

One assay relates to Pantetheinase (vanin). The assay is described as follows: Human Whole Blood assay. Type of assay: cell-based. The note with it: pantethine substrate, pantothenic acid formation by RapidFire MS, read-out: HWB IC50. The method, then:
Human Whole Blood assay: Pantetheinase (vanin) converts panteheine into pantothenic acid and cysteamine. Accordingly, in the described protocol vanin activity is quantified by formation of pantothenic acid after pantetheine supplementation via pantethine. The assay is applicable to identify vanin inhibitors. Compound stocks are dissolved in DMSO at 10 mM. Further dilutions are performed in RPMI 1640 medium (Gibco, #A-10491-01) and final concentrations in the assay are 0.032 nM-500 nM.
Human blood is drawn into a blood bag (1% heparin, 50 I.E./mL). Blood is aliquoted into cavities of 96-deep-well plates at 290 μL and mixed with 10 μL compound solution or vehicle (30 sec at 1400 rpm on a shaker). Equilibration follows at room temperature, 250 rpm and for 30 min. The assay is starts by adding 10 μL of substrate solution (20 μM pantethine in 1 mM DTT, 0.0025% Brij-35, 50 mM HEPES, pH7.5) to each well, except for some blank wells which receive […] substrate buffer (1 mM DTT, 0.0025% Brij-35, 50 mM HEPES, pH7.5) only. Samples are thoroughly shaken (30 sec, 1400 rpm) and reaction is allowed to take place at room temperature, 250 rpm and for 5 min. The reaction is stopped by addition of a vanin tool inhibitor in excess (BI-1 total conc. 10 μM). Centrifugation of the plate follows at 4° C., 665 G for 10 min. Then the blood plasma samples (100 μL) are transferred into another 96-deep-well plate and proteins are precipitated (5 min on ice) by adding 100 μL of ice cold precipitation solution (1 μM labelled pantothenic acid (di-β-alanine-13C6,15N2 calcium salt, Sigma, #705837) in acetonitrile). Afterwards the plate is centrifuged (4° C., 3220 G, 10 min) and supernatants (50 μL) are collected into another 96-deep-well plate and mixed (10 sec, 1400 rpm) with 150 μL ice cold formic acid (0.1%, Carl Roth GmbH+Co.KG, #CP03.1). The formation of pantothenic acid is detected by RapidFire Mass Spectrometry. A TripleQuad 6500+ (ABSciex, Germany) is equipped with an LC-1290 system, a RapidFire autosampler (Agilent, Germany) and a C18 cartridge Type C 12 μL (Agilent Cat #G9526-80000). Mobile phase A is consisting of 0.09% formic acid and 0.01% trifluoroacetic acid in water and mobile phase B of 0.09% formic acid and 0.01% trifluoroacetic acid in acetonitrile/methanol/water=47.5/47.5/5.

Assay [1] concerns the target T1, FLAG-tagged Vanin-1 (AA 22-493, T26I) (Homo sapiens, UniProt O95497, T26I).
T1 construct: FLAG-tagged Vanin-1 (AA 22-493, T26I, produced internally); FLAG; made in house
T1 sequence (O95497 22-493 T26I): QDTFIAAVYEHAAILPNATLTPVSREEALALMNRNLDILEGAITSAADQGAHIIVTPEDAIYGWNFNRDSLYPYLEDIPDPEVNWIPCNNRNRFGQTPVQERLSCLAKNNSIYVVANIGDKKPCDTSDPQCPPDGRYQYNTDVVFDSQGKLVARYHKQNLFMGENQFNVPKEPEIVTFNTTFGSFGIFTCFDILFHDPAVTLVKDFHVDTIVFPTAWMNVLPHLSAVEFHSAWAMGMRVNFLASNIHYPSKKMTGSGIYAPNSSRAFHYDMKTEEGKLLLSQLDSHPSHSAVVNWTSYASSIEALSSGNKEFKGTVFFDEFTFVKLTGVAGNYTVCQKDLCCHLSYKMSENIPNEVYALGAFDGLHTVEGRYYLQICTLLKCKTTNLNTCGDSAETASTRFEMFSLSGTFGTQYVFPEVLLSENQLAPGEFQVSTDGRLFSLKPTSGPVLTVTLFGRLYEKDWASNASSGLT
Description: Vanin-1 enzymatic assay. Type of assay: biochemical. The note with it: 0.1 nM Vanin-1, 3 μM D-pantethine, pantothenic acid formation by RapidFire MS; geometric mean if multiple measurements; read-out: VNN-1 IC50. On the procedure:
The test compounds are dissolved in 100% DMSO at a concentration of 10 mM and in a first step diluted in DMSO to a concentration of 5 mM, followed by serial dilution steps in 100% DMSO. Dilution factor and number of dilution steps may vary according to needs. Typically 8 different concentrations by 1:5 dilutions are prepared, a further intermediate dilutions of the substances is carried out with assay buffer resulting in 1% final DMSO concentration in the assay.
0.1 nM of FLAG-tagged Vanin-1 (AA 22-493, T26I, produced internally) and test compounds are incubated at room temperature for 20 minutes in assay buffer (1 mM DTT, 0.0025% Brij-35, 50 mM HEPES, pH7.5). D-Pantethine (Sigma, Cat #P2125-5G) in assay buffer is added (final concentration 3 μM) and incubated for additional 30 minutes at room temperature. Total assay volume typically is 40 μl but might be adjusted according to needs. Reaction is stopped by adding equal volume of stop solution as the reaction mixture to reach 100 nM HD-pantothenic acid (as an internal standard) and 1% TFA. Assay plates are centrifuged for 2 minutes and the formation of pantothenic acid is detected by RapidFire Mass Spectrometry (mobile phase A: 0.1% formic acid and 0.01% trifluoroacetic acid in water; mobile phase B: 47.5% acetonitrile, 47.5% methanol, 0.1% formic acid and 0.01% trifluoroacetic acid in water) using a C18, 12 μL cartridge (Agilent Cat #G9205A).
The values given in Table I result from measurements of one or more samples. In case of multiple measurements the geometric mean values are given.

`CC(=O)N(C)[C@H]1CCN(C(=O)c2ccc(NC(C)c3nccs3)nc2)C1` (single isomer, unassigned) [Example 5.1.A]: the results for the half-inhibitory concentration (IC50) (with Pantetheinase (vanin); in assay [1]) were 1820 pM and 90 pM, respectively.

As for `CC(=O)N(C)[C@H]1CCN(C(=O)c2ccc(NC(C)c3nccs3)nc2)C1` (single isomer, unassigned) [Example 5.1.B], in assay [1], the IC50 (in general, the concentration that inhibits the measured activity by half) stood at 940 pM. For the molecule `CC(=O)N(C)[C@H]1CCN(C(=O)c2ccc(NC(C)c3cccnc3)nc2)C1` (single isomer, unassigned) [Example 6.1.A], the IC50 in the assay on Pantetheinase (vanin) was determined as 2590 pM; in assay [1] it was 90 pM.

Turning to `CC(=O)N(C)[C@H]1CCN(C(=O)c2ccc(NC(C)c3cccnc3)nc2)C1` (single isomer, unassigned) [Example 6.1.B], the IC50 in assay [1] turned out to be 1430 pM. As for `CC(=O)N(C)[C@H]1CCN(C(=O)c2ccc(NC3CCc4ncccc43)nc2)C1` (single isomer, unassigned) [Example 8.8], the IC50 with Pantetheinase (vanin) is 1950 pM; in assay [1], 190 pM.

Regarding `CC(=O)N(C)[C@H]1CCN(C(=O)c2ccc(NC3CCc4ncccc43)nc2)C1` (single isomer, unassigned) [Example 8.14], the IC50 in the assay with Pantetheinase (vanin) came out at 76400 pM; in assay [1], 8560 pM. On the same counts, the results for `CC(=O)N(C)[C@H]1CCN(C(=O)c2ccc(NCc3cccc(C#N)c3)nc2)C1` [Example 1.1, N-[(3S)-1-(6-{[(3-Cyanophenyl)methyl]amino}pyridine-3-carbonyl)pyrrolidin-3-yl]-N-methylacetamide] are 5040 pM and 1270 pM. On the same counts, the results for `CC(=O)N(C)[C@H]1CCN(C(=O)c2ccc(N[C@@H](C)c3ccccc3)nc2)C1` [Example 1.2] are 4510 pM and 200 pM. With `CN(C(=O)C1(C)CCC1)[C@H]1CCN(C(=O)c2ccc(NCc3cccnc3Cl)nc2)C1` [Example 1.7], the 50% inhibitory concentration (IC50) in assay [1] was 120 pM.

Turning to `CN(C(=O)C1CC1)[C@H]1CCN(C(=O)c2ccc(NCc3ccc(Cl)nc3)nc2)C1` [Example 1.13], the IC50 in assay [1] was determined as 170 pM. On the same count and under the same terms, then `CNC(=O)c1cccc([C@H](C)Nc2ccc(C(=O)N3CC[C@H](N(C)C(C)=O)C3)cn2)c1` [Example 1.25], with 270 pM; and `CN(C(=O)C1(C)CCC1)[C@H]1CCN(C(=O)c2ccc(NCc3ccc(Cl)nc3)nc2)C1` [Example 1.28], with 320 pM.

`COC(=O)c1cccc(C(C)Nc2ccc(C(=O)N3CC[C@H](N(C)C(C)=O)C3)cn2)c1` (stereo partly shown) [Example 1.29]: the IC50 in assay [1] was 340 pM. Same read-out and setting: the figure for `CC(=O)N(C)[C@H]1CCN(C(=O)c2ccc(NCc3ccc(N)nc3)nc2)C1` [Example 1.34] is 470 pM; for `CC(=O)N(C)[C@H]1CCN(C(=O)c2ccc(NC3CCc4[nH]ncc43)nc2)C1` (stereo partly shown) [Example 1.35] it is 530 pM; for `CC(=O)Nc1cccc(C(C)Nc2ccc(C(=O)N3CC[C@H](N(C)C(C)=O)C3)cn2)c1` (stereo partly shown) [Example 1.36] it is 540 pM. On to `CN(C(=O)C1(C)CCC1)[C@H]1CCN(C(=O)c2ccc(NCc3cnccc3C(F)(F)F)nc2)C1` [Example 1.39], for which the half-maximal inhibitory concentration (IC50) in assay [1] came to 660 pM. On the same count and under the same terms, the figure for `CC(=O)N(C)[C@H]1CCN(C(=O)c2ccc(NCc3cncc(Br)c3)nc2)C1` [Example 1.41] is 770 pM; for `CC(=O)N(C)[C@H]1CCN(C(=O)c2ccc(N[C@@H](C)c3cccc(S(=O)(=O)N(C)C)c3)nc2)C1` [Example 1.45] it is 940 pM; for `CN(C)c1ccc(CNc2ccc(C(=O)N3CC[C@H](N(C)C(=O)C4(C)CCC4)C3)cn2)cn1` [Example 1.46] it is 960 pM. Still for that read-out and setting: the figure for `CC(=O)N(C)[C@H]1CCN(C(=O)c2ccc(NCc3cccc(-c4nc(CC(F)(F)F)no4)c3)nc2)C1` [Example 1.48] is 980 pM; for `CC(=O)N(C)[C@H]1CCN(C(=O)c2ccc(NCc3cccnn3)nc2)C1` [Example 1.49] it is 1040 pM. Turning to `CC(=O)N(C)[C@H]1CCN(C(=O)c2ccc(NCc3ccccn3)nc2)C1` [Example 1.56], the concentration for half-maximal inhibition (IC50) in assay [1] was found to be 1650 pM. For the molecule `CC[C@H](Nc1ccc(C(=O)N2CC[C@H](N(C)C(C)=O)C2)cn1)c1ccc(C(F)F)cc1` [Example 1.62], in assay [1], the IC50 was determined as 2360 pM. As to `C[C@H](Nc1ccc(C(=O)N2CC[C@H](N(C)C(=O)C3(C)CCC3)C2)cn1)c1cnccn1` [Example 1.76], the concentration for half-maximal inhibition (IC50) in assay [1] was 4330 pM. The same measure, in the same setting: the figure for `CC(=O)N(C)[C@H]1CCN(C(=O)c2ccc(NC3CCCc4cn[nH]c43)nc2)C1` (stereo partly shown) [Example 1.81] is 6990 pM; for `CC(=O)N(C)[C@H]1CCN(C(=O)c2ccc(NCc3ccncc3)nc2)C1` [Example 1.87] it is 8450 pM; for `CC(=O)N(C)[C@H]1CCN(C(=O)c2ccc(NCc3cc(CC(C)C)n[nH]3)nc2)C1` [Example 1.88] it is 8830 pM. The same measure, in the same setting: then `CC(=O)N(C)[C@H]1CCN(C(=O)c2ccc(NCc3ccnn3C)nc2)C1` [Example 1.90], with 9370 pM. The same measure, in the same setting: then `CN(C(=O)C1CC(F)(F)C1)[C@H]1CCN(C(=O)c2ccc(NC(C)(C)c3ccccc3)nc2)C1` [Example 2.3], with 90 pM; and `CC(=O)N(C)[C@H]1CCN(C(=O)c2ccc(NC3(c4ccccc4)CCC3)nc2)C1` [Example 4.6], with 210 pM. `CN(C(=O)C1(C)CCC1)[C@H]1CCN(C(=O)c2ccc(NC(C)(C)c3cccnc3)nc2)C1` [Example 8.1, N,1-Dimethyl-N-[(3S)-1-(6-{[2-(pyridin-3-yl)propan-2-yl]amino}pyridine-3-carbonyl)pyrrolidin-3-yl]cyclobutane-1-carboxamide]: the 50% inhibitory concentration (IC50) in assay [1] is 110 pM. Same read-out and setting: then `O=C(N[C@H]1CCN(C(=O)c2ccc(NC3(c4cncnc4)CC3)nc2)C1)C1CC1` [Example 8.13], with 4280 pM. `CC(=O)N(C)[C@H]1CCN(C(=O)c2ccc(NC3(c4ccc(Cl)cc4)CCC3)nc2)C1` [Example 9.2]: the IC50 in assay [1] came out at 150 pM.

As for `CC(=O)N(C)[C@H]1CCN(C(=O)c2ccc(NC(C)c3ccccc3)nc2)C1` (stereo partly shown) [Example 9.7], the IC50 in assay [1] is 720 pM. The same measure, in the same setting: then `CC(=O)N(C)[C@H]1CCN(C(=O)c2ccc(NC(C)c3cccc(C(N)=O)c3)nc2)C1` (stereo partly drawn) [Example 10.1, 3-[1-({5-[(3S)-3-(N-Methylacetamido)pyrrolidine-1-carbonyl]pyridin-2-yl}amino)ethyl]benzamide], with 350 pM; and `CC(=O)N(C)[C@H]1CCN(C(=O)c2ccc(N[C@@H](C)c3ccc(C#N)nc3)nc2)C1` [Example 11.1, N-[(3S)-1-(6-{[(1S)-1-(6-cyanopyridin-3-yl)ethyl]amino}pyridine-3-carbonyl)pyrrolidin-3-yl]-N-methylacetamide], with 740 pM.
